Laboratory results reported in patent US20230414771A1, “PREPARATION AND USE OF IMMUNOSTIMULATORY CONJUGATED COMPLEXES FOR TARGETED DELIVERY AND ACTIVATION” (YAFEI SHANGHAI BIOLOGY MEDICINE SCIENCE & TECHNOLOGY CO., …, priority 2020, published 2023).
Where a SMILES comes first, the peptide text is derived from it. The star is where a group is joined. Doxorubicin(3'-N) = COc1cccc2c1C(=O)c1c(O)c3c(c(O)c1C2=O)C[C@@](O)(C(=O)CO)C[C@@H]3O[C@H]1C[C@H](N*)[C@H](O)[C@H](C)O1; Hexanoyl(6-maleimido) = O=C1C=CC(=O)N1CCCCCC(=O)*

Assays:
[1] = tested on: Human fibrosarcoma HT-1080 tumor tissue homogenate; assay: Activation in HT-1080 tumor tissue homogenate; type: biochemical; conditions: HT-1080 homogenate pH 6.0, 37° C., 1 mg/ml
Method: (§1) In the experiments of the present disclosure, 1 mg/ml of the sample compound was added to 100 μg of acidified tumor tissue homogenate (pH 6.0) at 37° C. The enzyme in the tumor tissue homogenate can cause the release of doxorubicin, and the reduction of compound and the increase of doxorubicin could be detected by HPLC to compare the activation efficiency of the drug in the tumor tissue.

[2] = tested on: Human pancreatic carcinoma Panc-1 tumor tissue homogenate; assay: Activation in Panc-1 tumor tissue homogenate; type: biochemical; conditions: Panc-1 homogenate pH 6.0, 37° C., 1 mg/ml
Method: as §1

[3] = tested on: Human colon cancer HT-29 tumor tissue homogenate; assay: Activation in HT-29 tumor tissue homogenate; type: biochemical; conditions: HT-29 homogenate pH 6.0, 37° C., 1 mg/ml
Method: as §1

[4] = Solution stability, HPLC and electrophoresis; conditions: 0.5 mg/ml, pH 5.5, 25° C.
Method: Add 0.5 ml of sterile water for injection to prepare a 10 mg/ml mother solution. […] Take 30 ul of the mother solution, add 570 ul of buffer solutions with different pH values of 5.5, and prepare a 0.5 mg/ml sample solution. After the sample was clarified, it was placed in a 25° C./37° C. water bath, and after 8 hours, the sample was sampled by HPLC and electrophoresis to detect the content of the sample relative to 0 hours, and the solution stability data of different compounds could be obtained.

CD8+ T cells = assay: MTT cytotoxicity on CD8+ T cells; type: cell-based, C57BL/6 mouse; conditions: 48 hours, relative to C3
Method: • 1) Take the spleen of C57BL/6 mouse, place it on the culture dish with 40 uM screen (ice bath), add about 10 mL of normal saline, and gently grind with sterile syringe core. • 2) Transfer the ground cell suspension into a 50 mL centrifuge tube, add about 5 mL of normal saline to rinse the petri dish, and also transfer it into the 50 mL centrifuge tube, and combine the suspensions. • 3) Centrifuge the cell suspension at 1000 r/min for 10 min, discard the supernatant, and add an appropriate volume of normal saline to resuspend. Then add 3 times volume of ammonium chloride erythrocyte lysate, pipetting evenly. After lysing on ice for about 10 min, add 10 mL of normal saline to stop the lysing, and centrifuge at 1000 r/min for 5 min. • 4) After centrifugation, discard the supernatant, add 10 mL of physiological saline, pipette evenly, centrifuge at 1000 r/min for 5 min, and repeat the above operation once. Cells were then resuspended in 10% RMPI 1640 medium for subsequent culture or in 0.5% BSA for subsequent T cell sorting. […]
• A. Washing of CD3/CD28 magnetic beads: a. […] The cells were transferred to another tube to remove the beads as completely as possible and cultured in medium supplemented with […] (which could be increased according to the actual situation) and their status, proliferation and viability were monitored. […]

| Structure (SMILES) | Compound activation ratios (%) [1] | Compound activation ratios (%) [2] | Compound activation ratios (%) [3] | Stability data of the solution, 8 hr (content relative to 0 hours) [4] | cytotoxicity against CD8+ T cells (FIG. 5) (CD8+ T cells) |
| --- | --- | --- | --- | --- | --- |
| COc1cccc2c1C(=O)c1c(O)c3c(c(O)c1C2=O)C[C@@](O)(C(=O)CO)C[C@@H]3O[C@H]1C[C@H](NC(=O)[C@H](CC(C)C)NC(=O)[C@H](CC(N)=O)NC(=O)[C@H](C)NC(=O)[C@H](C)NC(=O)CCCCCN2C(=O)C=CC2=O)[C@H](O)[C@H](C)O1 [EMC-AANL-DOX] ({Hexanoyl(6-maleimido)}-AANL-{Doxorubicin(3'-N)}) | 44.7% | 54.8% | 49.4% | – | – |
| COc1cccc2c1C(=O)c1c(O)c3c(c(O)c1C2=O)C[C@@](O)(C(=O)CO)C[C@@H]3O[C@H]1C[C@H](NC(=O)[C@H](CC(C)C)NC(=O)[C@H](CC(N)=O)NC(=O)[C@H](C)NC(=O)[C@H](C)NC(=O)CCOCCOCCNC(=O)CCN2C(=O)C=CC2=O)[C@H](O)[C@H](C)O1 [QHL-087-DOX] | – | – | – | 98.2% | less cytotoxicity against CD8+ T cells |
